Data published in ChEMBL document CHEMBL1201862, “PubChem BioAssay data set” (2004).
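Compound exposure: 48 hours, 5 concentrations, 96-well plates. GI50 = concentration required for 50% inhibition of growth.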 Calls of active or inactive are those of the source. Cut-off read from the data, not from the text of the source: active = GI50 up to about 1.1 µM and inactive = higher.

What was measured:
Assay in all cases: NCI anticancer screen, dose series, 48 h
SK-MEL-28 = tested on: SK-MEL-28
COLO 205 = tested on: COLO 205
SF-539 = tested on: SF-539
OVCAR-5 = tested on: OVCAR-5
K562 = tested on: K562
CCRF-CEM = tested on: CCRF-CEM
HT-29 = tested on: HT-29
SK-MEL-2 = tested on: SK-MEL-2
HOP-92 = tested on: HOP-92
LOX IMVI = tested on: LOX IMVI
Malme-3M = tested on: Malme-3M
CAKI-1 = tested on: CAKI-1
OVCAR-3 = tested on: OVCAR-3
HCT-15 = tested on: HCT-15
TK-10 = tested on: TK-10
DU-145 = tested on: DU-145
HL-60 = tested on: HL-60
MDA-MB-231 = tested on: MDA-MB-231
SR = tested on: SR
MDA-N = tested on: MDA-N

Measured: GI50

CN(C)/N=N/c1ccc([N+](=O)[O-])cc1C(N)=O
inactive: SK-MEL-28 > 100 µM | COLO 205 > 100 µM | SF-539 > 100 µM | OVCAR-5 > 100 µM | K562 > 100 µM | CCRF-CEM > 100 µM | HT-29 > 100 µM | SK-MEL-2 > 100 µM | HOP-92 > 100 µM | LOX IMVI > 100 µM | Malme-3M > 100 µM | CAKI-1 > 100 µM | OVCAR-3 > 100 µM
> 100 µM: HCT-15

Cc1nc2[nH]ncn2c(=O)c1CCO
> 10 µM: HCT-15
inactive: SK-MEL-28 2.56 µM | COLO 205 > 10 µM | SF-539 > 10 µM | OVCAR-5 > 10 µM | K562 > 10 µM | CCRF-CEM > 10 µM | HT-29 > 10 µM | TK-10 > 10 µM | SK-MEL-2 > 10 µM | DU-145 > 10 µM | LOX IMVI > 10 µM | HL-60 > 10 µM | Malme-3M > 10 µM | MDA-MB-231 > 10 µM | CAKI-1 > 10 µM | SR > 10 µM | MDA-N > 10 µM

CC(C)(C)C(=O)OCC1OC(N=[N+]=[N-])C(OC(=O)C(C)(C)C)C(OC(=O)C(C)(C)C)C1OC(=O)C(C)(C)C (configuration not stated)
> 100 µM: HCT-15
inactive: SK-MEL-28 > 100 µM | COLO 205 > 100 µM | SF-539 > 100 µM | OVCAR-5 > 100 µM | K562 > 100 µM | CCRF-CEM > 100 µM | HT-29 > 100 µM | TK-10 > 100 µM | SK-MEL-2 > 100 µM | HOP-92 > 100 µM | HL-60 58.6 µM | Malme-3M > 100 µM | CAKI-1 > 100 µM | OVCAR-3 > 100 µM | SR > 100 µM

O=C(Nc1cccc(C(=O)NCCCO)c1)/C(=C/c1ccccc1)NC(=O)c1ccccc1
inactive: SK-MEL-28 > 100 µM | COLO 205 > 100 µM | SF-539 > 100 µM | OVCAR-5 > 100 µM | K562 > 100 µM | CCRF-CEM > 100 µM | HT-29 > 100 µM | TK-10 > 100 µM | SK-MEL-2 > 100 µM | DU-145 > 100 µM | HOP-92 > 100 µM | LOX IMVI > 100 µM | HL-60 > 100 µM | Malme-3M > 100 µM | MDA-MB-231 > 100 µM | CAKI-1 > 100 µM | OVCAR-3 > 100 µM | MDA-N > 100 µM
> 100 µM: HCT-15

CN(NC(=O)c1cccs1)C1=NCCCN1
> 100 µM: HCT-15
inactive: SK-MEL-28 > 100 µM | COLO 205 > 100 µM | SF-539 > 100 µM | OVCAR-5 > 100 µM | K562 > 100 µM | CCRF-CEM > 100 µM | HT-29 > 100 µM | TK-10 > 100 µM | SK-MEL-2 > 100 µM | HOP-92 > 100 µM | LOX IMVI > 100 µM | HL-60 > 100 µM | Malme-3M > 100 µM | MDA-MB-231 > 100 µM | OVCAR-3 > 100 µM | SR > 100 µM | MDA-N > 100 µM

C/C(=N/NS(=O)(=O)c1ccc([N+](=O)[O-])cc1)c1cccc[n+]1[O-]
inactive: SK-MEL-28 > 100 µM | SF-539 > 100 µM | OVCAR-5 > 100 µM | K562 > 100 µM | CCRF-CEM > 100 µM | HT-29 > 100 µM | TK-10 > 100 µM | HOP-92 > 100 µM | HL-60 > 100 µM | CAKI-1 > 100 µM | OVCAR-3 > 100 µM | SR > 100 µM
> 100 µM: HCT-15

Nc1nnc(CCC(=O)Nc2cc(Cl)ccc2Cl)n1N
inactive: SK-MEL-28 > 100 µM | COLO 205 > 100 µM | SF-539 > 100 µM | OVCAR-5 > 100 µM | K562 > 100 µM | CCRF-CEM > 100 µM | HT-29 > 100 µM | TK-10 > 100 µM | SK-MEL-2 > 100 µM | HOP-92 > 100 µM | LOX IMVI > 100 µM | HL-60 > 100 µM | Malme-3M > 100 µM | CAKI-1 > 100 µM | OVCAR-3 > 100 µM | SR > 100 µM
> 100 µM: HCT-15

CCOC(=O)/C(=C/c1cn(C(C)=O)c2ccccc12)P(=O)(OC)OC
inactive: SK-MEL-28 37.2 µM | COLO 205 > 10 µM | OVCAR-5 40.6 µM | K562 25.6 µM | CCRF-CEM 30 µM | HT-29 40.5 µM | TK-10 > 100 µM | SK-MEL-2 31.1 µM | DU-145 22.2 µM | HOP-92 31.1 µM | LOX IMVI 25.3 µM | HL-60 18 µM | MDA-MB-231 43.8 µM | CAKI-1 31.9 µM | OVCAR-3 20.3 µM | SR 24.8 µM
29.7 µM: HCT-15
